{
  "source": "paper PMC12458691",
  "about": "(Inorganic Chemistry, 2025)",
  "origin": "cited, not measured here",
  "key": {"[1]": {"conditions": "Table S2, 0.15 M NaClO4, 298.1 K, ref 1 of the SI, cited from earlier work"}, "[2]": {"conditions": "Table S3, 0.15 M NaClO4, 298.1 K; ref 1 of the SI; cited from earlier work"}, "[3]": {"set-up": "method as in earlier work", "conditions": "Table S3, 0.15 M NaClO4, 298.1 K; ref 1 of the SI; cited from earlier work"}, "[4]": {"set-up": "method as in footnotes c–f, numbers not given", "conditions": "Cu2+ complexes/salt/enzyme, literature data for comparison; ref footnotes c–f, numbers not given; cited from earlier work"}, "[5]": {"set-up": "method as in number not given", "conditions": "Mn2+ complexes of the ligands, recently reported; ref number not given; cited from earlier work"}},
  "data": [
    {"smiles": "c1cc2nc(c1)CNCCNCCNC2", "note": "[^ H PyNH 3]", "values": [
      {"measurement": "log K, H + H2L ⇄ H3L (stepwise protonation constant)", "setting": "[1]; potentiometry", "value": "1.90(1)"},
      {"measurement": "log K, H + HL ⇄ H2L (stepwise protonation constant)", "setting": "[1]; potentiometry", "value": "7.96(1)"},
      {"measurement": "log K, H + L ⇄ HL (stepwise protonation constant)", "setting": "[1]; potentiometry", "value": "10.54(1)"},
      {"measurement": "log β (∑log K, protonation)", "setting": "[1]", "value": 20.40},
      {"measurement": "log K, [CuL(OH)]+ + H2O ⇄ [CuL(OH)2] + H+", "setting": "[2]", "value": "-10.7(1)"},
      {"measurement": "log K, [CuL]2+ + H2O ⇄ [CuL(OH)]+ + H+", "setting": "[2]", "value": "-8.68(8)"},
      {"measurement": "log K, Fe2+ + L ⇄ [FeL]2+ (stability constant)", "setting": "[3]", "value": "12.68(2)"},
      {"measurement": "log K, [FeL]2+ + H2O ⇄ [FeL(OH)] + H+", "setting": "[3]", "value": "-6.94(5)"},
      {"measurement": "k cat (SOD catalytic constant)", "setting": "[4]", "value": "1.7 10^6 M^–1 s^–1"},
      {"measurement": "TON of catalase activity of the Mn2+ complexes", "setting": "[5]", "value": "25–37"}
    ]}
  ]
}
